Consider 4 molecules from patent US7074961B2, “Antidepressants and their analogues as long-acting local anesthetics and analgesics” (The Brigham and Women's Hospital, Inc., priority 2000, dated 2006).

In experiment [1] the test system is rat sciatic nerve. As to the kind of experiment: Rat sciatic nerve blockade with neurobehavioral examination (proprioception, motor function, nocifensive reaction). The class given is in vivo. Conditions: for Development of sciatic nerve blockade after injection: all rats. An excerpt: Male Sprague-Dawley rats were purchased from Taconic Farm, Inc., Germantown, N.Y., and kept in animal housing facilities with controlled humidity (20-30% relative humidity), room temperature, and a 12-h (6:00 AM-6:00 PM) light-dark cycle. Rats were handled before behavioral testing to familiarize them with the experiment and to minimize stress-induced analgesia. At the time of injections, animals weighed approximately 250-300 g. The experimenter was blinded to the drug/concentration used.
For sciatic nerve blockade, rats were lightly anesthetized by inhalation of sevoflurane and the landmarks (greater trochanter and ischial tuberosity) of the left hind limb were localized. […] The right hind limb was used as a control.
Neurobehavioral examination consisted of evaluation of motor function, proprioception, and nocifensive reaction immediately before inhalation of sevoflurane, at 2, 4, 6, 8, 10, 15, 20, 25, 30, 45, and 60 minutes after the injection, and then at 30-minute intervals until 750 minutes (12.5 hours). The following is a brief description of the neurobehavioral examination.
Motor function. Motor function was evaluated by measuring the “extensor postural thrust” of the hind limbs. The rat was held upright with the hind limb extended so that the body's weight was supported by the distal metatarsus and toes. The extensor thrust was measured as the gram force applied to a digital platform balance (Ohaus Lopro, Fisher Scientific, Florham Park, N.J.), the force that resists contact of the platform by the heel. The preinjection control value (range 130-165 gram) was considered 0% of the maximal possible effect (MPE). The reduction in this force, representing reduced extensor muscle contraction due to motor blockade, was calculated as a percentage of the control force. A force less than 20 grams (also referred to as weight of the “flaccid limb”) was considered 100% MPE.
Proprioception. Proprioception evaluation was based on resting posture and postural reactions (“tactile placing” and “hopping”). The functional deficit was graded as 3 (normal) or 0% MPE, 2 (slightly impaired), 1 (severely impaired), and 0 (complete) or 100% MPE. Keeping the rat in a normal resting posture with the toes flexed and the dorsi of the feet placed on the supporting surface, we evaluated tactile placing as the ability to reposition the toes.
Hopping response was evoked by lifting the front half of the animal off the ground and then lifting one hind limb at a time off the ground so that the animal moved laterally. This process normally evokes a prompt hopping with the weight-bearing limb in the direction of movement to avoid falling over. A predominantly motor impairment causes a prompt but weaker than normal response. Conversely with a predominantly proprioceptive blockade, delayed hopping is followed by greater lateral hops to avoid falling over or, in case of full blockade, no hopping at all.
Nocifensive reaction. Nocifensive reaction was evaluated by the withdrawal reflex and/or vocalization to pinch of a skin fold over the lateral metatarsus (cutaneous pain) and of the distal phalanx of the fifth toe (deep pain). Nocifensive reaction was graded 4 (normal or 0% MPE), 3 (25% MPE), 2 (50% MPE), 1 (75% MPE), and 0 (absent or 100% MPE).

For experiment [2] the following is noted: reportedly; cited from earlier work.
For experiment [3], the system named is Na+ channels. The experiment in a line: Whole-cell voltage clamp of Na+ currents in GH3 cells. The class given is cell-based, rat. Conditions: for Use-dependent (additional) blockade of Na+ currents: 3 μM, high-frequency stimulation at 5 Hz, 60 pulses; for Na+ channels blocked in the inactivated state / Na+ channels blocked in the resting state: 10 μM; for Na+ channels blocked in the inactivated state: conditioning pulse of −60 mV; for Na+ channels blocked in the inactivated state / Na+ channels blocked in the resting state / IC50: GH3 cells; for Na+ channels blocked in the resting state: conditioning pulse of −150 mV; for Time to complete washout: all concentrations and all protocols. As for the experimental part:
The whole-cell configuration of the patch-clamp technique was used to record macroscopic Na^+ currents at room temperatures ranging from 21 to 23 degrees Celsius. Command voltages were controlled by pCLAMP software (Axons Instruments, Inc., Foster City, Calif.) and delivered by a List-EPC7 patch clamp amplifier (List-Electronic, Darmstadt/Eberstadt, Germany). After the establishment of whole-cell configuration, cells were dialyzed for 30 minutes before data were acquired. Data were filtered at 5 kHz, sampled at 50 kHz, collected, and stored with pCLAMP software. Leak and capacitance currents were subtracted by P/4 protocol, which was not applied in the use-dependent block of Na^+ currents. Pipette electrodes were filled with an internal solution containing (in mM) 100 NaF, 30 NaCl, 10 ethylene glycol-bis(β-aminoethylether)N,N,N′,N′-tetraacetic acid (EGTA), and 10 hydroxyethylpiperazineethane sulfonic acid (HEPES) titrated with CsOH to pH 7.2. The external solution consisted of (in mM) 85 choline Cl, 65 NaCl, 2 CaCl2, and 10 HEPES titrated with tetramethylammoniumhydroxide to pH 7.4. Rat clonal pituitary GH3 cells were purchased from the American Type Culture, Collection (Rockville, Md.). Cells were split twice a week and maintained in Dulbecco's modified Eagle's medium supplemented with penicillin/streptomycin (1%) and heat-inactivated fetal bovine serum (10%). The 35 mm-culture dishes in which the cells were grown were also used as a recording chamber. To determine the voltage-dependent blockade by amitriptyline or bupivacaine, a prepulse or conditioning pulse at various voltages and long enough to permit the drug-channel binding interaction to reach its steady-state level was applied (pulse protocol and representative tracings are shown in FIG. 4A). In order to determine the potency of amitriptyline and bupivacaine for the resting and inactivated states, dose-response curves were subsequently constructed at holding potentials of −150 mV and −60 mV, respectively (FIG. 5). Finally, additional blockade provoked by high-frequency stimulation (use dependent blockade) was investigated (pulse protocol and representative tracings are shown in FIG. 6A).

Where [4] appears, read: holding potential −60 mV, read-out: 50% inhibitory concentration (IC50), inactivated state.
Setting [5] is: holding potential −150 mV, read-out: 50% inhibitory concentration (IC50), resting state.
Setting [6] is: single injection at 5 mM into the rat sciatic notch.

Structures are written as SMILES. Several values for one entry are separate records, joined by “and”; a condition that tells them apart may be missing. Equal values may be shown once. Read-outs that look alike come from different tables or passages of the source. Where only a bound is given, the exact number is not on record here.

For `C[N+](C)(C)CC/C=C1\c2ccccc2COc2ccccc21` [N-methyl doxepin, N-methyl doxepin bromide], in experiment [1] (5 mM, pH 7.4), the “Duration for complete blockage of motor” value came to 5.0 ± 0.5 h, the “Duration for complete blockage of nociception” value was 5.3 ± 0.3 h, the “Duration for complete blockage of proprioception” value was found to be 5.0 ± 0.5 h and the “Time to reach full recovery of motor” value was determined as 10.3 ± 0.2 h. For the same molecule, in experiment [1] (5 mM, pH 7.4), the “Time to reach full recovery of nociception” value came out at 9.9 ± 0.2 h and the “Time to reach full recovery of proprioception” value worked out at 9.5 ± 0.3 h. Besides, the “Development of sciatic nerve blockade after injection” value in experiment [1] is “complete sciatic nerve blockade”.
For the molecule `CCCCN1CCCCC1C(=O)Nc1c(C)cccc1C` (centres unmarked) [bupivacaine], in experiment [2], the “Duration of major nerve block” value is on record as “three to twelve”. In addition, in experiment [3], the “Use-dependent (additional) blockade of Na+ currents” value was approximately 14%, the “Na+ channels blocked in the inactivated state” value was more than 70%, the “Na+ channels blocked in the resting state” value was “essentially none” and the “Time to complete washout” value is not above 3 min. For the same molecule, the IC50 in experiment [3] (setting [4]) came to 9.5 ± 0.6 µM. In experiment [3] (setting [5]), the IC50 came out at 9.5 ± 0.6 µM. For the same molecule, the “Hill coefficient, inactivated state” value in experiment [3] (−60 mV) came out at 1.16±0.08. In addition, the “Hill coefficient, resting state” value in experiment [3] (−150 mV) came out at 1.12±0.04. Further, in experiment [1] (15.4 mM), the “Duration of complete blockade, motor” value is 87.5 ± 14.7 min; the “Duration of complete blockade, nociception” value was determined as 90 ± 13.4 min; the “Duration of complete blockade, proprioception” value stood at 90 ± 13.4 min; the “Time to full recovery of function, motor function” value (“Time … motor function” for short) was determined as 160.0 ± 6.3 min. The “Time to full recovery of function, proprioception” value (from here on “Time … of function, proprioception”) in experiment [1] (15.4 mM) came to 155.0 ± 9.2 min. Moreover, the “Onset: time to full nociceptive, motor and proprioceptive blockade” value (“Onset: time to full nociceptive” for short) in experiment [1] (0.2 ml 15.4 mM at sciatic nerve) is listed as 4 min.
On to `C[N+](C)(CCC=C1c2ccccc2CCc2ccccc21)CCc1ccccc1.[Br-]` [N-phenyl-ethyl amitriptyline, N-phenyl-ethyl amitriptyline bromide], for which the “Inhibition of sodium channels in vitro” value in experiment [3] is “strong tonic and use-dependent inhibition”. Further, in experiment [1] (5 mM, 5 vs. 70 hrs), the “Extension of duration of complete nerve block over parent drug” value is given as “more than 10 fold”. Besides, in experiment [1] (setting [6]), the “Duration of complete sciatic nerve block” value lay in the range of 70 to 80 h and the “Full recovery of function” value fell in the range of 5 to 6 days.
In the case of `CN(C)CCC=C1c2ccccc2CCc2ccccc21` [amitriptyline], in experiment [3], the “Use-dependent (additional) blockade of Na+ currents” value is listed as approximately 50%, the “Na+ channels blocked in the inactivated state” value is more than 95%, the “Na+ channels blocked in the resting state” value is approximately 15% and the “Time to complete washout” value is not above 5 min. Besides, the IC50 in experiment [3] (setting [4]) was 0.9 ± 0.1 µM. The IC50 in experiment [3] (setting [5]) stood at 141 ± 4.4 µM. Moreover, in experiment [3] (−60 mV), the “Hill coefficient, inactivated state” value is 1.35±0.15 and the “Potency relative to bupivacaine, inactivated state” value is recorded as approximately 10 ×. Further, in experiment [3] (−150 mV), the “Hill coefficient, resting state” value turned out to be 1.56±0.03 and the “Potency relative to bupivacaine, resting state” value is given as approximately 15 ×. In experiment [1] (5 mM), the “Duration of complete blockade, motor” value worked out at 168.7 ± 7.9 min; the “Duration of complete blockade, nociception” value was 217.5 ± 19.4 min; the “Time … motor function” value came out at 270 ± 13.9 min; the “Time to full recovery of function, nociception” value stood at 352.5 ± 12.4 min. In addition, the “Time … of function, proprioception” value in experiment [1] (5 mM) was determined as 255.0 ± 11.3 min. In addition, in experiment [1] (10 mM), the “Duration of complete blockade, motor” value stood at 402.9 ± 27.7 min; the “Duration of complete blockade, nociception” value is 454.8 ± 38.4 min and 454.3 ± 38.4 min; the “Duration of complete blockade, proprioception” value amounted to 467.1 ± 35.8 min; the “Time … motor function” value was 582.6 ± 32.6 min. Also, in experiment [1] (10 mM), the “Time to full recovery of function, nociception” value came out at 655.7 ± 27.3 min and the “Time … of function, proprioception” value was 578.6 ± 39.7 min. Further, the “Onset: time to full nociceptive” value in experiment [1] (0.2 ml 5 mM at sciatic nerve) worked out at 30 min. Also, in experiment [1] (0.2 ml 10 mM at sciatic nerve), the “Onset: time to full nociceptive” value was 6 min. Also, in experiment [1], the “Development of sciatic nerve blockade after injection” value is recorded as “complete sciatic nerve blockade”.
